{
  "source": "patent EP0412158A1",
  "about": "“ONCOSTATIC DRUG” (priority 1987, dated 1988)",
  "key": {"[1]": {"tested_on": "methyl cholanthrene A tumor", "experiment": "Methyl cholanthrene A tumor, evaluation by size of tumor (Examples 31 to 33)", "type": "in vivo, female BALB/C mice", "protocol": "A heteropoly acid salt, Na5[IM06O24]•34H2O (Compound M), and other compounds (Compounds N and O ) were severally dissolved in distilled water to obtain aqueous solutions containing the salts in a fixed concentration of 10 mg/ml. To female BALB/C mice (five weeks old) to which methyl cholanthrene A tumor had been transplanted, the aqueous solutions were administered to test the compounds for antineoplastic activity. To be specific, the methyl cholanthrene A was transplanted to the mice at a ratio of 1.0 x 10^5 cells per mouse and the aqueous solutions were administered ([…]) for 9 consecutive days by intraperitoneal injection. On elapse of 14 and 21 days after the stop of the administration, the sizes of tumors in the mice were measured. For comparison, mice to which no aqueous solution was administered and mice to which aminonitrosourea was administered were similarly tested."}, "[2]": {"tested_on": "breast cancer (MX-1)", "type": "in vivo, female nude mice", "details": "100 mg/kg ip ×10; for T/C: tumor volume", "protocol": "A patch of breast cancer [cancer cells recommended by National Cancer Institute (NCI) of the U.S.A.] (MX-1) measuring approximately 2 x 2 mm in area was transplanted to each of female nude mice five weeks old. To the mice, an aqueous solution of the aforementioned heteropoly acid salt (Compound M) was administered at a dose of 100 mg/kg once a day by intraperitoneal injection for 10 consecutive days on elapse of 17 days following the transplantation of tumor (ip). For 15 days following the stop of the administration, the volumes of tumor in the mice were measured to evaluate the effect of compound. At ip (x 10), significant suppression of hyperplasia appeared around the 4th day and a strong supression of hyperplasia of cancer was maintained even after 25 days following the completion of transplantation. For comparison, mice to which no aqueous solution was administered were similarly tested."}, "[3]": {"tested_on": "MM-46 breast cancer", "type": "in vivo, female C3H/He mice", "details": "for T/C: tumor weight", "protocol": "The heteropoly acid salt (Compound M) mentioned above was dissolved in distilled water to obtain an aqueous solution containing the compound in a concentration of 10 mg/ml. This aqueous solution was administered to female C3H/He mice (five weeks old) to which MM-46 breast cancer had been transplanted, to test the compound for antineoplastic activity. To be more specific, the MM-46 breast cancer was transplanted to the mice in a ratio of 1.0 x 10^5 cells per mouse and the aqueous solution was administered (at a dose of 100 mg and a dose of 200 mg per kg of body weight) intraperitoneally (ip) or orally (po) for 9 consecutive days. After elapse of 14 days following the stop of the administration, the sizes of tumor were measured. For comparison, mice to which no aqueous solution was administered were similarly tested."}, "[4]": {"tested_on": "MM-46 breast cancer", "type": "in vivo, female C3H/He mice", "protocol": "The aforementioned active compound M was dissolved in distilled water to obtain an aqueous solution containing the compound in a concentration of 10 mg/ml. To female C3H/He mice (five weeks old) to which MM-46 breast cancer was transplanted in a ratio of 1.0 x 10^5 cells per mouse, the aqueous solution was administered intraperitoneally (ip) or orally (po) at a dose of 100 mg and a dose of 200 mg per kg of body weight for 9 consecutive days to measure the periods of the mices survival. For comparison, mice to which no aqueous solution was administered was similarly tested."}, "[5]": {"tested_on": "methyl cholanthrene A", "experiment": "Methyl cholanthrene A tumor, evaluation by extension of period of survival (Examples 7 to 11)", "type": "in vivo, female BALB/C mice", "details": "for Change in body weight: ip×9, D1~D9", "protocol": "The aforementioned compounds, A to D, were severally dissolved in distilled water to obtain aqueous solutions containing the compounds in a fixed concentration of 10 mg/ml. To the female BALB/C mice (five weeks old) to which methyl cholanthrene A had been transplanted in a ratio of 1.0 x 10^5 cells per mouse, […] to determine the mices' periods of survival. For comparison, mice to which no antineoplastic drug was administered and mice to which aminonitroso urea was administered were similarly tested."}, "[6]": {"experiment": "Test for acute toxicity", "type": "in vivo, BALB/C mice, nude mice", "details": "result in words"}},
  "note": "Where two headings read alike, the source gives them in different places. Marks after values point to notes of the source that are not given here.",
  "data": [
    {"substance": "Nas [IMo6O24] • 34H2O [Compound M]", "values": [
      {"measurement": "Average weight of tumor after elapse of 14 days ± SE", "setting": "[1]; 100 mg/kg, ip × 9 (D1~D9)", "result": "191.1±38.8(7) mg"},
      {"measurement": "toxicity", "setting": "[1]; 100 mg/kg.ip for 9 consecutive days, judged by increase of body weight, result in words", "result": "very slight toxicity"},
      {"measurement": "Average volume of tumor, Average ±SE", "setting": "[2]; day 1", "result": "333.2±25.0", "unit": "mm^3"},
      {"measurement": "Average volume of tumor, Average ±SE", "setting": "[2]; day 2", "result": "404.7±16.5", "unit": "mm^3"},
      {"measurement": "T/C", "setting": "[2]; day 2", "result": 90.9, "unit": "%"},
      {"measurement": "Average volume of tumor, Average ±SE", "setting": "[2]; day 3", "result": "510.0±38.8", "unit": "mm^3"},
      {"measurement": "T/C", "setting": "[2]; day 3", "result": 88.6, "unit": "%"},
      {"measurement": "Average volume of tumor, Average ±SE", "setting": "[2]; day 4", "result": "575.0±14.4", "unit": "mm^3"},
      {"measurement": "T/C", "setting": "[2]; day 4", "result": "85.9* %"},
      {"measurement": "Average volume of tumor, Average ±SE", "setting": "[2]; day 5", "result": "555.2±44.7", "unit": "mm^3"},
      {"measurement": "T/C", "setting": "[2]; day 5", "result": "74.7** %"},
      {"measurement": "Average volume of tumor, Average ±SE", "setting": "[2]; day 6", "result": "565.5±36.7", "unit": "mm^3"},
      {"measurement": "T/C", "setting": "[2]; day 6", "result": "76.1** %"},
      {"measurement": "Average volume of tumor, Average ±SE", "setting": "[2]; day 7", "result": "616.7±20.3", "unit": "mm^3"},
      {"measurement": "T/C", "setting": "[2]; day 7", "result": "64.3 **** %"},
      {"measurement": "Average volume of tumor, Average ±SE", "setting": "[2]; day 8", "result": "786.0±40.0", "unit": "mm^3"},
      {"measurement": "T/C", "setting": "[2]; day 8", "result": "75.4*** %"},
      {"measurement": "Average volume of tumor, Average ±SE", "setting": "[2]; day 9", "result": "869.0±33.2", "unit": "mm^3"},
      {"measurement": "T/C", "setting": "[2]; day 9", "result": "63.6*** %"},
      {"measurement": "Average volume of tumor, Average ±SE", "setting": "[2]; day 10", "result": "957.9±38.1", "unit": "mm^3"},
      {"measurement": "T/C", "setting": "[2]; day 10", "result": "64.8*** %"},
      {"measurement": "Average volume of tumor, Average ±SE", "setting": "[2]; day 11", "result": "1092.7±32.4", "unit": "mm^3"},
      {"measurement": "T/C", "setting": "[2]; day 11", "result": "69.5*** %"},
      {"measurement": "Average volume of tumor, Average ±SE", "setting": "[2]; day 15", "result": "1540.5±106.6", "unit": "mm^3"},
      {"measurement": "T/C", "setting": "[2]; day 15", "result": "61.7** %"},
      {"measurement": "Average volume of tumor, Average ±SE", "setting": "[2]; day 18", "result": "1821.0±127.4", "unit": "mm^3"},
      {"measurement": "T/C", "setting": "[2]; day 18", "result": "61.5*** %"},
      {"measurement": "Average volume of tumor, Average ±SE", "setting": "[2]; day 21", "result": "2182.0±148.6", "unit": "mm^3"},
      {"measurement": "T/C", "setting": "[2]; day 21", "result": "64.5*** %"},
      {"measurement": "Average volume of tumor, Average ±SE", "setting": "[2]; day 25", "result": "2671.7±154.5", "unit": "mm^3"},
      {"measurement": "T/C", "setting": "[2]; day 25", "result": "73.0** %"},
      {"measurement": "Average weight of tumor 21 days after transplantation ±SE", "setting": "[3]; 100 mg/kg/day ip×9", "result": "560±283(6) mg"},
      {"measurement": "Number of tumorless mice /total number of mice", "setting": "[3]; 100 mg/kg/day ip×9", "result": "0/6"},
      {"measurement": "T/C", "setting": "[3]; 100 mg/kg/day ip×9", "result": 0.277},
      {"measurement": "Average weight of tumor 21 days after transplantation ±SE", "setting": "[3]; 200 mg/kg/day po×9", "result": "572±76(6) mg"},
      {"measurement": "Number of tumorless mice /total number of mice", "setting": "[3]; 200 mg/kg/day po×9", "result": "0/7"},
      {"measurement": "T/C", "setting": "[3]; 200 mg/kg/day po×9", "result": 0.258},
      {"measurement": "% ILS", "setting": "[4]; 100 mg/kg/day ip×9", "result": 100.9, "unit": "%"},
      {"measurement": "(column without head: number of mice/total number of mice)", "setting": "[4]; 100 mg/kg/day ip×9", "result": "1/7"},
      {"measurement": "Average days of survival ±SE", "setting": "[4]; 100 mg/kg/day ip×9", "result": "55.1±8.7(7) days"},
      {"measurement": "% ILS", "setting": "[4]; 200 mg/kg/day po×9", "result": 59.7, "unit": "%"},
      {"measurement": "(column without head: number of mice/total number of mice)", "setting": "[4]; 200 mg/kg/day po×9", "result": "0/6"},
      {"measurement": "Average days of survival ±SE", "setting": "[4]; 200 mg/kg/day po×9", "result": "43.8±3.9(6) days"}
    ]},
    {"substance": "[NH3C3H7(iso)]s (Mo7O24] • 3H2O [Compound A]", "values": [
      {"measurement": "Average number of days of survival", "setting": "[5]; No. 1, 100 mg/kg, ip×9", "result": "42.3 ± 3.0", "unit": "days"},
      {"measurement": "Number of toxically killed mice/total number of mice", "setting": "[5]; No. 1, 100 mg/kg, ip×9", "result": "0/8"},
      {"measurement": "Change in body weight", "setting": "[5]; No. 1, 100 mg/kg", "result": "+2.50 g"},
      {"measurement": "T/control", "setting": "[5]; No. 1, 100 mg/kg, ip×9, days of survival", "result": 163.1},
      {"measurement": "Average number of days of survival", "setting": "[5]; No. 2, 50 mg/kg, ip×9", "result": "31.8±2.2(8) days"},
      {"measurement": "Number of toxically killed mice/total number of mice", "setting": "[5]; No. 2, 50 mg/kg, ip×9", "result": "0/8"},
      {"measurement": "Change in body weight", "setting": "[5]; No. 2, 50 mg/kg", "result": "+1.68 g"},
      {"measurement": "T/control", "setting": "[5]; No. 2, 50 mg/kg, ip×9, days of survival", "result": 131.8},
      {"measurement": "T/control", "setting": "[5]; period of survival", "result": 63.1, "unit": "%"},
      {"measurement": "acute toxicity", "setting": "[6]; BALB/C mice, dose of 3,600 mg/kg", "result": "no toxicity"},
      {"measurement": "acute toxicity", "setting": "[6]; nude mice, dose of 2,000 mg/kg ip", "result": "no toxicity"}
    ]}
  ]
}
